# Data taken from ChEMBL document CHEMBL4308841, “Synthesis, in vitro antiproliferative activity, and kinase inhibitory effects of pyrazole-containing diarylureas and diarylamides” (Eur J Med Chem, 2018).
# Experiments:
# [1] = tested on: SK-MEL-2; assay: Growth inhibition of human SK-MEL-2 cells assessed as cell growth at 0.01 uM incubated for 48 hrs by sulforhodamine B assay relative to control; assay type: functional; details: SK-MEL-2, 48 h, read-out: Activity
# [2] = tested on: DU-145; assay: Growth inhibition of human DU145 cells assessed as cell growth at 1 uM incubated for 48 hrs by sulforhodamine B assay relative to control; assay type: functional; details: DU-145, 48 h, read-out: Activity
# [3] = tested on: NCI-H23; assay: Growth inhibition of human NCI-H23 cells assessed as cell growth at 0.1 uM incubated for 48 hrs by sulforhodamine B assay relative to control; assay type: functional; details: NCI-H23, 48 h, read-out: Activity
# [4] = tested on: BT-549; assay: Growth inhibition of human BT549 cells assessed as cell growth at 0.1 uM incubated for 48 hrs by sulforhodamine B assay relative to control; assay type: functional; details: BT-549, 48 h, read-out: Activity
# [5] = tested on: UO-31; assay: Growth inhibition of human UO31 cells incubated for 48 hrs by sulforhodamine B assay; assay type: functional, cell-based; details: UO-31, 48 h
# [6] = tested on: 786-0; assay: Growth inhibition of human 786-0 cells assessed as cell growth at 1 uM incubated for 48 hrs by sulforhodamine B assay relative to control; assay type: functional; details: 786-0, 48 h, read-out: Activity
# [7] = tested on: SNB-75; assay: Growth inhibition of human SNB75 cells incubated for 48 hrs by sulforhodamine B assay; assay type: functional, cell-based; details: SNB-75, 48 h
# [8] = tested on: HL-60(TB); assay: Growth inhibition of human HL-60(TB) cells assessed as cell growth at 0.1 uM incubated for 48 hrs by sulforhodamine B assay relative to control; assay type: functional; details: HL-60, 48 h, read-out: Activity
# [9] = tested on: 786-0; assay: Growth inhibition of human 786-0 cells incubated for 48 hrs by sulforhodamine B assay; assay type: functional, cell-based; details: 786-0, 48 h
# [10] = tested on: Hs-578T; assay: Growth inhibition of human Hs578T cells assessed as cell growth at 100 uM incubated for 48 hrs by sulforhodamine B assay relative to control; assay type: functional; details: read-out: Activity
# [11] = tested on: HCT-15; assay: Growth inhibition of human HCT15 cells assessed as cell growth at 0.01 uM incubated for 48 hrs by sulforhodamine B assay relative to control; assay type: functional; details: HCT-15, 48 h, read-out: Activity
# [12] = tested on: COLO 205; assay: Growth inhibition of human COLO205 cells assessed as cell growth at 0.01 uM incubated for 48 hrs by sulforhodamine B assay relative to control; assay type: functional; details: COLO 205, 48 h, read-out: Activity
# [13] = tested on: U-251; assay: Growth inhibition of human U251 cells incubated for 48 hrs by sulforhodamine B assay; assay type: functional, cell-based; details: U-251, 48 h
# [14] = tested on: A498; assay: Growth inhibition of human A498 cells incubated for 48 hrs by sulforhodamine B assay; assay type: functional, cell-based; details: A498, 48 h
# [15] = tested on: RPMI-8226; assay: Growth inhibition of human RPMI8226 cells assessed as cell growth at 100 uM incubated for 48 hrs by sulforhodamine B assay relative to control; assay type: functional; details: RPMI-8226, 48 h, read-out: Activity
# [16] = tested on: ACHN; assay: Growth inhibition of human ACHN cells assessed as cell growth at 0.1 uM incubated for 48 hrs by sulforhodamine B assay relative to control; assay type: functional; details: read-out: Activity
# [17] = tested on: NCI-H522; assay: Growth inhibition of human NCI-H522 cells assessed as cell growth at 100 uM incubated for 48 hrs by sulforhodamine B assay relative to control; assay type: functional; details: NCI-H522, 48 h, read-out: Activity
# [18] = tested on: RXF 393; assay: Growth inhibition of human RXF393 cells assessed as cell growth at 0.1 uM incubated for 48 hrs by sulforhodamine B assay relative to control; assay type: functional; details: RXF 393, 48 h, read-out: Activity
# [19] = tested on: RXF 393; assay: Growth inhibition of human RXF393 cells incubated for 48 hrs by sulforhodamine B assay; assay type: functional, cell-based; details: RXF 393, 48 h
# [20] = tested on: NCI-H460; assay: Growth inhibition of human NCI-H460 cells incubated for 48 hrs by sulforhodamine B assay; assay type: functional, cell-based; details: NCI-H460, 48 h
# [21] = tested on: SF-539; assay: Growth inhibition of human SF539 cells assessed as cell growth at 0.1 uM incubated for 48 hrs by sulforhodamine B assay relative to control; assay type: functional; details: SF-539, 48 h, read-out: Activity
# [22] = tested on: A549; assay: Growth inhibition of human A549/ATCC cells incubated for 48 hrs by sulforhodamine B assay; assay type: functional, cell-based; details: A549, 48 h
# [23] = tested on: SK-OV-3; assay: Growth inhibition of human SKOV3 cells assessed as cell growth at 1 uM incubated for 48 hrs by sulforhodamine B assay relative to control; assay type: functional; details: SK-OV-3, 48 h, read-out: Activity
# [24] = tested on: RXF 393; assay: Growth inhibition of human RXF393 cells assessed as cell growth at 0.01 uM incubated for 48 hrs by sulforhodamine B assay relative to control; assay type: functional; details: RXF 393, 48 h, read-out: Activity
# [25] = tested on: SK-OV-3; assay: Growth inhibition of human SKOV3 cells assessed as cell growth at 0.01 uM incubated for 48 hrs by sulforhodamine B assay relative to control; assay type: functional; details: SK-OV-3, 48 h, read-out: Activity
# [26] = tested on: SW-620; assay: Growth inhibition of human SW620 cells assessed as cell growth at 100 uM incubated for 48 hrs by sulforhodamine B assay relative to control; assay type: functional; details: SW-620, 48 h, read-out: Activity
# [27] = tested on: Hs-578T; assay: Growth inhibition of human Hs578T cells assessed as cell growth at 0.01 uM incubated for 48 hrs by sulforhodamine B assay relative to control; assay type: functional; details: read-out: Activity
# [28] = tested on: NCI-H522; assay: Growth inhibition of human NCI-H522 cells assessed as cell growth at 0.01 uM incubated for 48 hrs by sulforhodamine B assay relative to control; assay type: functional; details: NCI-H522, 48 h, read-out: Activity
# [29] = read-out: LC50 (the source's name)
# [30] = read-out: pLC50 (the source's name) (converted)
structure (smiles),measurement,setting,value
COc1cc(Cl)cc(-c2nn(-c3cccc(NC(=O)Nc4cccc(C(F)(F)F)c4)c3)cc2-c2ccncc2)c1,growth at 0.01 µM,[1],95%
same,growth at 1 µM,[2],73%
same,growth at 0.1 µM,[3],90%
same,growth at 0.1 µM,[4],114%
same,IC50,[5],1.03 µM
same,GI50,[5]; read-out: GI50,1.03 µM
same,CC50,[5]; [29],> 100 µM
same,TGI,[5]; read-out: TGI,77.5 µM
same,GI50,[5]; read-out: pGI50 (converted),1.02 µM
same,CC50,[5]; [30],> 100 µM
same,TGI,[5]; read-out: pTGI (converted),7.76 µM
same,growth at 1 µM,[6],77%
same,GI50,[7]; read-out: GI50,1.76 µM
same,CC50,[7]; [29],> 100 µM
same,TGI,[7]; read-out: TGI,13.9 µM
same,GI50,[7]; read-out: pGI50 (converted),1.78 µM
same,CC50,[7]; [30],> 100 µM
same,TGI,[7]; read-out: pTGI (converted),13.8 µM
same,growth at 0.1 µM,[8],98%
same,GI50,[9]; read-out: GI50,1.94 µM
same,CC50,[9]; [29],67.1 µM
same,TGI,[9]; read-out: TGI,57.5 µM
same,GI50,[9]; read-out: pGI50 (converted),1.95 µM
same,CC50,[9]; [30],67.6 µM
same,TGI,[9]; read-out: pTGI (converted),6.76 µM
same,growth at 100 µM,[10],21%
same,growth at 0.01 µM,[11],92%
same,growth at 0.01 µM,[12],100%
same,IC50,[13],0.88 µM
same,GI50,[13]; read-out: GI50,0.679 µM
same,CC50,[13]; [29],89.4 µM
same,TGI,[13]; read-out: TGI,29.1 µM
same,GI50,[13]; read-out: pGI50 (converted),0.891 µM
same,CC50,[13]; [30],8.91 µM
same,TGI,[13]; read-out: pTGI (converted),2.88 µM
same,GI50,[14]; read-out: GI50,2.25 µM
same,CC50,[14]; [29],> 100 µM
same,TGI,[14]; read-out: TGI,25.5 µM
same,GI50,[14]; read-out: pGI50 (converted),2.24 µM
same,CC50,[14]; [30],> 100 µM
same,TGI,[14]; read-out: pTGI (converted),25.7 µM
same,growth at 100 µM,[15],-43%
same,growth at 0.1 µM,[16],92%
same,growth at 100 µM,[17],-78%
same,growth at 0.1 µM,[18],92%
same,LC50,[19],36.3 µM
same,GI50,[19]; read-out: GI50,1.4 µM
same,TGI,[19]; read-out: TGI,43.5 µM
same,GI50,[19]; read-out: pGI50 (converted),1.41 µM
same,TGI,[19]; read-out: pTGI (converted),4.37 µM
same,GI50,[20]; read-out: GI50,0.84 µM
same,CC50,[20]; [29],> 100 µM
same,TGI,[20]; read-out: TGI,45.8 µM
same,CC50,[20]; [30],> 100 µM
same,growth at 0.1 µM,[21],93%
same,IC50,[22],0.73 µM
same,GI50,[22]; read-out: GI50,0.726 µM
same,CC50,[22]; [29],> 100 µM
same,TGI,[22]; read-out: TGI,74.2 µM
same,GI50,[22]; read-out: pGI50 (converted),0.724 µM
same,CC50,[22]; [30],> 100 µM
same,TGI,[22]; read-out: pTGI (converted),7.41 µM
same,growth at 1 µM,[23],103%
same,growth at 0.01 µM,[24],93%
same,growth at 0.01 µM,[25],92%
same,growth at 100 µM,[26],-11%
same,growth at 0.01 µM,[27],99%
same,growth at 0.01 µM,[28],95%
